Source: patent publication US20060166892A1, “Treatment of cell proliferative disorders with chlorotoxin” (priority 2002, published 2006)
Like-named read-outs stand apart in the source and are kept apart here. Ends that are not written are not given here. * marks the point of attachment. Biotin = O=C1N[C@H]2[C@H](CS[C@H]2CCCCC(=O)*)N1

Columns and labels:
[1] = tested on: D54MG Glioblastoma cells; conditions: 24 h
Procedure: The purpose of this experiment was to determine if the proliferation D54MG Glioblastoma cells, as measured by ^3H-thymidine uptake, is effected by Peptide 21, a segment of the full chlorotoxin sequence. The sequence of peptide 21 and its relation to chlorotoxin is shown in the sequence below:
D54MG cells were plated in a 24 well plate at 100,000 cells/ml/well using five rows of four wells for each concentration. The cells were allowed to adhere in normal media for twenty-four hours at 37° C. and 5% carbon dioxide. TM-701 was diluted to a […] stock solution and added to each row at the concentrations of 0, 20, 80, 160 and 320 nM.
The cells and peptide 21 were allowed to incubate for 24 hours at 37° C. and 5% carbon dioxide. After twenty-four hours, the cells were rinsed two times with warm PBS. Normal media was added back to the cells at 1 ml/well. One μCi of ^3H-thymidine was added to each well (1 μl of 1 mCi/ml ^3H-thymidine to each well). The plate was incubated for two hours at 37° C. The media and thymidine were removed and the wells were rinsed with ice-cold phosphate-buffered saline three times. To each well was added 1 ml of 0.3 N NaOH. The plate was incubated in the 37° C. incubator for thirty minutes. Each well of 0.3 N NaOH was pipetted up and down three to four times and removed from the plate and the solution was placed in scintillation vials for counting. Scintillation fluid at four times the amount of sample was added to the vials (4 ml). Each vial was counted on the scintillation counter for one minute.

[2] = tested on: PC3 prostate cancer cells; test: Binding of biotinylated peptides to PC3 cells, HRP-avidin detection; parameters: species or system human; conditions: chlorotoxin binding assay, FIG. 11
Procedure: To identify core binding site sequences of chlorotoxin, twenty-seven overlapping 10-mers derived from SEQ 1) NO: 1 were synthesized, starting from the C-terminus of the peptide as indicated in FIG. 7.
Binding of the 10-mer peptides to PC3 prostate cancer cells in vitro was measured by incubating cultured PC3 cells with individual peptides. Binding was detected and quantified by incubating the peptide exposed cells with HRP-avidin using a commercial kit according to manufacturer's instructions.
(SEQ ID NO: 10) sequentially as depicted in Table 5.
In order to compare binding of the short scorpion toxins, the regions homologous to peptide 21 of small toxin and probable toxin LQH-8/6 were synthesized and biotinylated for analysis in the chlorotoxin binding assay. (See Table 6 for amino acid sequences of the peptides).

Question: For Biotin-TTDHQMARKS [peptide 21], which “uptake of 3H-thymidine, trend over 20 to 320 nM” value ([1]; FIG. 12) is on record?
Answer: decreases in a does-dependent manner

Question: What about the “3H-Thymidine uptake ± SD” value ([1]; peptide 21 at 20 nM) of the same substance?
Answer: 7795 ± 634 CPM

Question: And the “3H-Thymidine uptake ± SD” value ([1]; peptide 21 at 80 nM)?
Answer: 7412 ± 630 CPM

Question: What about the “3H-Thymidine uptake ± SD” value ([1]; peptide 21 at 160 nM) of the same substance?
Answer: 6983 ± 329 CPM

Question: And the “3H-Thymidine uptake ± SD” value ([1]; peptide 21 at 320 nM)?
Answer: 5782 ± 886 CPM

Question: What about the “binding in PC3 human prostate cancer cells” value (from here on “binding”) [2] of the same substance?
Answer: 232.50 % of background levels

Question: With “TTDPQMSKK [21ST, region of small toxin homologous to peptide 21, synthesized and biotinylated]” as the substance, how does the “binding” value [2] read?
Answer: 225.26 % of background levels

Question: How did the “binding” value [2] turn out when “TTDQQMTKK [21LQ, region of probable toxin LQH-8/6 homologous to peptide 21, synthesized and biotinylated]” was run?
Answer: 242.32 % of background levels

Question: For “negative peptide (GKCYGPQCLC; Chlorotoxin; listed as Leiurus quinquestriatus) [reference compound]”, which “binding” value [2] is on record?
Answer: 110 % of background levels
